Experimental data: patent US20050164323A1, “Methods of treating asthma” (Wyeth, priority 2003, published 2005)
“Also recorded” adds a separate entry of the source. One block for each molecule: values may come before it. Non-standard residues stand in square brackets, D forms with d. Residues, ends and D or L forms follow the SMILES beside them. pS = N[C@@H](COP(=O)(O)O)C(=O)O

Experiments:
Assay type in all cases: biochemical
PKC-θ KD [1] = molecular target: T1, PKC-θ KD (Homo sapiens, UniProt Q04759); assay: HPLC assay: thio effect with ATPγS and product inhibition with ADP; conditions: for pattern / Ki: product inhibition; for appKm / rate: peptide1 used in assay
T1 construct: PKC-θ KD (amino acid residues 362 to 706) was cloned into a pET16b expression vector; hexa-histidine (C); Met-Gly (non-native N-terminal residues) (N); made in house; host or cells: E. coli BL21-DE3 (pET16b)

PKC-θ KD [2] = molecular target: T1, PKC-θ KD; assay: coupled PK/LDH assay: steady-state kinetics, product and dead-end inhibition of PKC-θ KD; conditions: for substrate inhibition: high peptide concentrations
PKC-θ KD [3] = molecular target: T1, PKC-θ KD; assay: solvent viscosity studies (sucrose, Ficoll 400) on steady state kinetic parameters; conditions: from viscosity analysis
Description: Next, solvent viscosity studies were performed. Steady state kinetic parameters were determined in the buffer described above for the enzyme kinetics assays containing varied sucrose (0-35%) or Ficoll 400 (0-8%). Relative solvent viscosities (η^ref) were determined in triplicate relative to 25 mM HEPES pH 7.5, 10 mM MgCl2, 2 mM DTT and 100 mM NaCl at 25° C. using an Ostwald viscometer. Buffer with no viscogen is indicated with a superscript of 0. The coupling enzyme system was unaffected by the presence of these viscogens. Thio effect studies with ATPγS and product inhibition studies with ADP were analyzed on a Hewlett Packard series 1100 HPLC using a Phenomenex Auga […] C18 124 A^0 50 mm×4.60 […] column (00B-4299-E0). Phosphorylated peptide was separated from non-phosphorylated peptide using a gradient of 0% to 100% 20 mM phosphate pH 8.8/acetonitrile (50/50). The fluorescein-labeled peptide was detected by excitation at 485 nm and monitoring the fluorescence emission at 530 nm.
To determine if the chemical step is the lone contributor to the rate of the reaction, the effect of solvent viscosity on the steady state kinetic parameters for PKC-θ was determined. Two types of viscogens were employed in this study, the microviscogen sucrose and the macroviscogen Ficoll-400. […]

[4] = dead-end inhibition against peptide 1 at saturating ATP (AMP-PNP up to 2.0 mM)
[5] = dead-end inhibition, varied substrate ATP, 100 mM NaCl
[6] = substrate inhibition, fit to equation (2), saturating ATP, read-out: Ki peptide
[7] = varied peptide substrate, saturating ATP
[8] = varied substrate peptide3, saturating ATP, 100 mM NaCl, read-out: Kis

T1 sequence (Q04759 with tags, fused parts or gaps): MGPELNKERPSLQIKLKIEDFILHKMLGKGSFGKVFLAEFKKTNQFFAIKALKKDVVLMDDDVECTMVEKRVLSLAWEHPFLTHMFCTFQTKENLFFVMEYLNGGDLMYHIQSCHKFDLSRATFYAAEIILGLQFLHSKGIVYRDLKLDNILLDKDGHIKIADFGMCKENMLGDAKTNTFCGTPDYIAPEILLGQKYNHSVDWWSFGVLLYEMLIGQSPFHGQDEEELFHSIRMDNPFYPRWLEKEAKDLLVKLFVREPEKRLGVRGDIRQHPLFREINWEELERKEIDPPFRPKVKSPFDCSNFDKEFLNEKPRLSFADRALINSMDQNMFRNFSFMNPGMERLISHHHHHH

Molecule: CC(C)C[C@H](NC(=O)[C@H](CO)NC(=O)CNC(=O)[C@H](CCCCN)NC(=O)[C@H](CCCNC(=N)N)NC(=O)[C@H](C)NC(=O)[C@H](Cc1ccccc1)NC(=O)[C@@H](N)CCCNC(=N)N)C(=O)N[C@@H](CCCNC(=N)N)C(=O)N[C@@H](CCC(N)=O)C(=O)N[C@@H](CCCCN)C(=O)N[C@@H](CC(N)=O)C(=O)N[C@H](C(=O)O)C(C)C [peptide2] (H-RFARKGSLRQKNV-OH; N-terminus and C-terminus assumed)
- substrate inhibition (PKC-θ KD [2]): observed
- Ki (PKC-θ KD [2]; [6]): 306 ± 57 µM
- appKm (PKC-θ KD [2]; [7]): 4.3 ± 0.8 µM
- appKm (PKC-θ KD [2]; varied peptide substrate, saturating ATP, listed as peptide 2): 4.3 µM

Molecule: CC(C)C[C@H](NC(=O)[C@H](C)NC(=O)CNC(=O)[C@H](CCCCN)NC(=O)[C@H](CCCNC(=N)N)NC(=O)[C@H](C)NC(=O)[C@@H](N)Cc1ccccc1)C(=O)N[C@@H](CCCNC(=N)N)C(=O)N[C@@H](CCC(N)=O)C(=O)O [peptide5] (H-FARKGALRQ-OH; N-terminus and C-terminus assumed)
- inhibition pattern in words (PKC-θ KD [2]; against peptide 3 at saturating ATP): competitive inhibitor
- inhibition pattern in words (PKC-θ KD [2]; dead-end inhibition against ATP, listed as Peptide 5): uncompetitive inhibitor
- inhibition pattern in words (PKC-θ KD [2]; dead-end inhibition against ATP, listed as peptide 5): un-competitive
- inhibition pattern in words (PKC-θ KD [2]; [4]): competitive inhibitor
- pattern (PKC-θ KD [2]; [5]): uc (uc, uncompetitive)
- Ki (PKC-θ KD [2]; dead-end inhibition, varied substrate ATP, 100 mM NaCl, read-out: Kii): 1100 µM
- pattern (PKC-θ KD [2]; dead-end inhibition, varied substrate peptide1, saturating ATP, 100 mM NaCl): c (c, competitive)
- Ki (PKC-θ KD [2]; dead-end inhibition, varied substrate peptide1, saturating ATP, 100 mM NaCl, read-out: Kis): 10 µM
- pattern (PKC-θ KD [2]; varied substrate peptide3, saturating ATP, 100 mM NaCl): c (c, competitive)
- Ki (PKC-θ KD [2]; [8]): 4.4 µM

Molecule: CC(C)C[C@H](NC(=O)[C@H](COP(=O)(O)O)NC(=O)CNC(=O)[C@H](CCCCN)NC(=O)[C@H](CCCNC(=N)N)NC(=O)[C@H](C)NC(=O)[C@@H](N)Cc1ccccc1)C(=O)N[C@@H](CCCNC(=N)N)C(=O)N[C@@H](CCC(N)=O)C(=O)O [phosphopeptide1] (H-FARKG[pS]LRQ-OH)
- Ki (PKC-θ KD [2]; varied substrate ATP, peptide3 held at 0.5 mM, 100 mM NaCl, read-out: Kii): 1600 µM
- Ki (PKC-θ KD [2]; varied substrate peptide3, ATP held at 0.1 mM, 100 mM NaCl, read-out: Kii): 2000 µM
- Ki (PKC-θ KD [2]; varied substrate peptide3, saturating ATP, 100 mM NaCl, read-out: Kii): 1200 µM
- Ki (PKC-θ KD [2]; [8]): 1700 µM

Molecule: LKRSLSEM [peptide3, substrate derived from the phosphorylation site in serum response factor]
- stickiness of substrate (PKC-θ KD [3]): not sticky
- substrate inhibition (PKC-θ KD [2]): not observed
- appKm (PKC-θ KD [2]; [7]): 420 ± 21 µM
- kcat (PKC-θ KD [2]; [7]): 21 ± 1 s⁻¹
- appKm (PKC-θ KD [2]; varied peptide substrate, saturating ATP, listed as Peptide 3): 420 µM

Molecule: RTPKLARQASIELPSM [peptide4, substrate derived from the phosphorylation site in lymphocyte-specific protein-1]
- substrate inhibition (PKC-θ KD [2]): not observed
- appKm (PKC-θ KD [2]; [7]): 240 ± 16 µM
- kcat (PKC-θ KD [2]; [7]): 14 ± 1 s⁻¹
- appKm (PKC-θ KD [2]; varied peptide substrate, saturating ATP, listed as peptide 4): 240 µM

Further lines, with some results ahead:

- inhibition pattern in words (PKC-θ KD [1]; against peptide 1 at non-saturating ATP (0.1 mM)): non-competitive pattern
- inhibition pattern in words (PKC-θ KD [1]; against peptide 1 at saturating ATP): no inhibition observed
- pattern (PKC-θ KD [1]; varied substrate ATP, saturating peptide 1, 100 mM NaCl): c (c, competitive)
- Ki (PKC-θ KD [1]; varied substrate ATP, saturating peptide 1, 100 mM NaCl, read-out: Kis): 291 µM
- pattern (PKC-θ KD [1]; varied substrate peptide1, ATP held at 0.1 mM, 100 mM NaCl): nc (nc, noncompetitive)
- Ki (PKC-θ KD [1]; varied substrate peptide1, ATP held at 0.1 mM, 100 mM NaCl, read-out: Kii): 200 µM
- Ki (PKC-θ KD [1]; varied substrate peptide1, ATP held at 0.1 mM, 100 mM NaCl, read-out: Kis): 494 µM
Molecule: Nc1ncnc2c1ncn2[C@@H]1O[C@H](COP(=O)(O)OP(=O)(O)O)[C@@H](O)[C@H]1O [ADP]
- inhibition pattern in words (PKC-θ KD [1]; against ATP at saturating peptide 1): competitive inhibitor; also recorded: competitive pattern

- inhibition pattern in words (PKC-θ KD [2]; dead-end inhibition against ATP): competitive inhibitor
- inhibition pattern in words (PKC-θ KD [2]; [4]): no observed inhibition
- pattern (PKC-θ KD [2]; [5]): c (c, competitive)
- Ki (PKC-θ KD [2]; dead-end inhibition, varied substrate ATP, 100 mM NaCl, read-out: Kis): 228 µM
Molecule: Nc1ncnc2c1ncn2[C@@H]1O[C@H](COP(=O)(O)OP(=O)(O)NP(=O)(O)O)[C@@H](O)[C@H]1O [AMP-PNP]

- appKm ATP (PKC-θ KD [2]; 0 mM NaCl, 0.2 mM peptide1): 25 ± 5 µM
- kcat (PKC-θ KD [2]; 100 mM NaCl, fit to equation (1)): 22 ± 1 s⁻¹
- kcat (PKC-θ KD [2]; 250 mM NaCl, fit to equation (1)): 24 ± 1 s⁻¹
- ATP hydrolysis slower in absence of peptide substrate than when peptide is present (PKC-θ KD [2]; no peptide vs peptide present): 110 times
- kcat (PKC-θ KD [2]; varied ATP, peptide1 present): 18 s⁻¹
Molecule: Nc1ncnc2c1ncn2[C@@H]1O[C@H](COP(=O)(O)OP(=O)(O)OP(=O)(O)O)[C@@H](O)[C@H]1O [ATP, adenosine triphosphate]

- ratio ATP/ATPγS of appKm (PKC-θ KD [1]; 100 mM NaCl): 2.1
- ratio ATP/ATPγS of rate (thio effect) (PKC-θ KD [1]; 100 mM NaCl): 112
- appKm (PKC-θ KD [1]; 100 mM NaCl): 120 ± 9 µM
- ratio ATP/ATPγS of appKm (PKC-θ KD [1]; 250 mM NaCl): 1.8
- ratio ATP/ATPγS of rate (thio effect) (PKC-θ KD [1]; 250 mM NaCl): 146
- appKm (PKC-θ KD [1]; 250 mM NaCl): 130 ± 5 µM
Molecule: Nc1ncnc2c1ncn2[C@@H]1O[C@H](COP(=O)(O)OP(=O)(O)OP(O)(O)=S)[C@@H](O)[C@H]1O [ATPγS]
- rate (PKC-θ KD [1]; 100 mM NaCl): 1.6 ± 0.1 peak area/(reaction time in minutes)([enzyme] nM)
- rate (PKC-θ KD [1]; 250 mM NaCl): 1.3 ± 0.1 peak area/(reaction time in minutes)([enzyme] nM)

- Ki (PKC-θ KD [2]; 0 mM NaCl, read-out: substrate inhibition): 129 µM
- Ki (PKC-θ KD [2]; 50 mM NaCl, substrate inhibition, read-out: Ki peptide1): 201 ± 85 µM
- Ki (PKC-θ KD [2]; 100 mM NaCl, substrate inhibition, read-out: Ki peptide1): > 2000 µM
- Ki (PKC-θ KD [2]; [6]): > 2000 µM
Molecule: CC(C)C[C@H](NC(=O)[C@H](CO)NC(=O)CNC(=O)[C@H](CCCCN)NC(=O)[C@H](CCCNC(=N)N)NC(=O)[C@H](C)NC(=O)[C@@H](N)Cc1ccccc1)C(=O)N[C@@H](CCCNC(=N)N)C(=O)N[C@@H](CCC(N)=O)C(=O)O [peptide1] (H-FARKGSLRQ-OH)
